Measurements published in patent publication US8952024B2, “Herbicidal pyrimidone derivatives” (E I du Pont de Nemours and Company, priority 2009, dated 2015).

Key:
Assay in all cases: Test B pre-/postemergence plant response
Type in all cases: in vivo
[1] = system: Italian ryegrass (Lolium multiflorum)
Procedure, shortened: (§1)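 Visual injury, 0–100 scale (100 = complete control), rated against controls after 13 to 15 days in greenhouse. Pre-emergence: seeds in loam/sand soil, treated at planting. Post-emergence: 1- to 4-leaf plants (2 to 18 cm) in peat/vermiculite medium. Compounds formulated in non-phytotoxic solvent with surfactant.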

[2] = system: Surinam grass (Brachiaria decumbens)
Procedure, shortened: as §1

[3] = system: downy bromegrass (Bromus tectorum)
Procedure, shortened: as §1

[4] = system: goosegrass (Eleusine indica)
Procedure, shortened: as §1

[5] = system: green foxtail (Setaria viridis)
Procedure, shortened: as §1

[6] = system: lambsquarters (Chenopodium album)
Procedure, shortened: as §1

[7] = system: large crabgrass (Digitaria sanguinalis)
Procedure, shortened: as §1

[8] = system: pigweed (Amaranthus retroflexus)
Procedure, shortened: as §1

[9] = system: ragweed (common ragweed, Ambrosia elatior)
Procedure, shortened: as §1

[10] = system: velvetleaf (Abutilon theophrasti)
Procedure, shortened: as §1

[11] = system: wheat (Triticum aestivum)
Procedure, shortened: as §1

[12] = system: woolly cupgrass (Eriochloa villosa)
Procedure, shortened: as §1

[13] = system: yellow nutsedge (Cyperus esculentus)
Procedure, shortened: as §1

[14] = 31 g ai/ha, postemergence, scale 0 to 100, 0 is no effect, 100 is complete control
[15] = Postemergence, 62 g ai/ha, scale 0 (no effect) to 100 (complete control), 13 to 15 days
[16] = Postemergence, 125 g ai/ha, visual rating after 13 to 15 days, scale 0 (no effect) to 100 (complete control)
[17] = Postemergence, 250 g ai/ha, scale 0 to 100 (0 no effect, 100 complete control)
[18] = Preemergence, 31 g ai/ha, scale 0 to 100 (0 no effect, 100 complete control)
[19] = Preemergence, 62 g ai/ha, scale 0 to 100 (0 no effect, 100 complete control)
[20] = Preemergence, 125 g ai/ha, scale 0 to 100, 0 no effect, 100 complete control
[21] = 250 g ai/ha, Preemergence, 0 to 100 scale

O=C1CCCC(O)=C1C(=O)c1cnc(-c2ccsc2)n(-c2ccccc2)c1=O [Compound 56]
70: Plant response rating, Ragweed [9, 20] | Plant response rating, Cupgrass, Woolly [12, 21] | Plant response rating, Nutsedge, Yellow [13, 15]
98: Plant response rating, Surinam Grass [2, 20] | Plant response rating, Foxtail, Green [5, 16] | Plant response rating, Lambsquarters [6, 14] | Plant response rating, Lambsquarters [6, 21] | Plant response rating, Lambsquarters [6, 15] | Plant response rating, Lambsquarters [6, 19] | Plant response rating, Lambsquarters [6, 20] | Plant response rating, Crabgrass, Large [7, 21] | Plant response rating, Crabgrass, Large [7, 20] | Plant response rating, Pigweed [8, 14] | Plant response rating, Pigweed [8, 15] | Plant response rating, Pigweed [8, 18] | Plant response rating, Velvetleaf [10, 16] | Plant response rating, Velvetleaf [10, 17] | Plant response rating, Velvetleaf [10, 20]
60: Plant response rating, Bromegrass, Downy [3, 17]
80: Plant response rating, Surinam Grass [2, 15] | Plant response rating, Foxtail, Green [5, 14] | Plant response rating, Crabgrass, Large [7, 18] | Plant response rating, Nutsedge, Yellow [13, 19]
100: Plant response rating, Surinam Grass [2, 17] | Plant response rating, Goosegrass [4, 21] | Plant response rating, Foxtail, Green [5, 21] | Plant response rating, Foxtail, Green [5, 17] | Plant response rating, Lambsquarters [6, 16] | Plant response rating, Lambsquarters [6, 17] | Plant response rating, Pigweed [8, 16] | Plant response rating, Pigweed [8, 17] | Plant response rating, Pigweed [8, 19] | Plant response rating, Pigweed [8, 20]
85: Plant response rating, Surinam Grass [2, 16] | Plant response rating, Foxtail, Green [5, 15] | Plant response rating, Crabgrass, Large [7, 15] | Plant response rating, Crabgrass, Large [7, 19] | Plant response rating, Velvetleaf [10, 14] | Plant response rating, Velvetleaf [10, 18] | Plant response rating, Cupgrass, Woolly [12, 17] | Plant response rating, Nutsedge, Yellow [13, 20]
90: Plant response rating, Goosegrass [4, 17] | Plant response rating, Goosegrass [4, 18] | Plant response rating, Crabgrass, Large [7, 16] | Plant response rating, Velvetleaf [10, 15] | Plant response rating, Velvetleaf [10, 19]
15: Plant response rating, Cupgrass, Woolly [12, 14]
45: Plant response rating, Bromegrass, Downy [3, 15] | Plant response rating, Cupgrass, Woolly [12, 15]
35: Plant response rating, Bromegrass, Downy [3, 14]
50: Plant response rating, Ryegrass, Italian [1, 16] | Plant response rating, Ryegrass, Italian [1, 17] | Plant response rating, Bromegrass, Downy [3, 16] | Plant response rating, Cupgrass, Woolly [12, 20]
95: Plant response rating, Surinam Grass [2, 19] | Plant response rating, Goosegrass [4, 19] | Plant response rating, Goosegrass [4, 20] | Plant response rating, Lambsquarters [6, 18] | Plant response rating, Crabgrass, Large [7, 17]
0: Plant response rating, Ryegrass, Italian [1, 14] | Plant response rating, Ryegrass, Italian [1, 15] | Plant response rating, Ryegrass, Italian [1, 18] | Plant response rating, Ryegrass, Italian [1, 19] | Plant response rating, Ryegrass, Italian [1, 20] | Plant response rating, Bromegrass, Downy [3, 18] | Plant response rating, Bromegrass, Downy [3, 19] | Plant response rating, Bromegrass, Downy [3, 20] | Plant response rating, Foxtail, Green [5, 18] | Plant response rating, Wheat [11, 14] | Plant response rating, Wheat [11, 15] | Plant response rating, Wheat [11, 16] | Plant response rating, Wheat [11, 17] | Plant response rating, Wheat [11, 18] | Plant response rating, Wheat [11, 19] | Plant response rating, Wheat [11, 20] | Plant response rating, Cupgrass, Woolly [12, 18]
55: Plant response rating, Surinam Grass [2, 18] | Plant response rating, Ragweed [9, 14] | Plant response rating, Ragweed [9, 15]
20: Plant response rating, Foxtail, Green [5, 19] | Plant response rating, Foxtail, Green [5, 20] | Plant response rating, Ragweed [9, 18] | Plant response rating, Cupgrass, Woolly [12, 19] | Plant response rating, Nutsedge, Yellow [13, 14] | Plant response rating, Nutsedge, Yellow [13, 18]
65: Plant response rating, Goosegrass [4, 14] | Plant response rating, Ragweed [9, 19] | Plant response rating, Cupgrass, Woolly [12, 16]
75: Plant response rating, Surinam Grass [2, 14] | Plant response rating, Goosegrass [4, 15] | Plant response rating, Goosegrass [4, 16] | Plant response rating, Crabgrass, Large [7, 14] | Plant response rating, Ragweed [9, 16] | Plant response rating, Ragweed [9, 17] | Plant response rating, Nutsedge, Yellow [13, 16] | Plant response rating, Nutsedge, Yellow [13, 17]
5: Plant response rating, Bromegrass, Downy [3, 21]

O=C1CCCC(O)=C1C(=O)c1cnc(-c2ccccc2)n(CC2CCCO2)c1=O (stereo not drawn) [Compound 59]
98: Plant response rating, Goosegrass [4, 18] | Plant response rating, Goosegrass [4, 19] | Plant response rating, Foxtail, Green [5, 21] | Plant response rating, Lambsquarters [6, 15] | Plant response rating, Lambsquarters [6, 18] | Plant response rating, Crabgrass, Large [7, 21] | Plant response rating, Crabgrass, Large [7, 20] | Plant response rating, Velvetleaf [10, 17]
35: Plant response rating, Bromegrass, Downy [3, 16]
100: Plant response rating, Goosegrass [4, 21] | Plant response rating, Goosegrass [4, 20] | Plant response rating, Lambsquarters [6, 21] | Plant response rating, Lambsquarters [6, 16] | Plant response rating, Lambsquarters [6, 17] | Plant response rating, Lambsquarters [6, 19] | Plant response rating, Lambsquarters [6, 20] | Plant response rating, Crabgrass, Large [7, 17] | Plant response rating, Pigweed [8, 15] | Plant response rating, Pigweed [8, 16] | Plant response rating, Pigweed [8, 17] | Plant response rating, Pigweed [8, 19] | Plant response rating, Pigweed [8, 20] | Plant response rating, Velvetleaf [10, 20]
75: Plant response rating, Surinam Grass [2, 14] | Plant response rating, Surinam Grass [2, 19] | Plant response rating, Goosegrass [4, 14] | Plant response rating, Ragweed [9, 14] | Plant response rating, Ragweed [9, 18] | Plant response rating, Velvetleaf [10, 18] | Plant response rating, Cupgrass, Woolly [12, 14] | Plant response rating, Cupgrass, Woolly [12, 15] | Plant response rating, Nutsedge, Yellow [13, 17]
55: Plant response rating, Crabgrass, Large [7, 18] | Plant response rating, Nutsedge, Yellow [13, 18]
60: Plant response rating, Wheat [11, 17] | Plant response rating, Nutsedge, Yellow [13, 15]
20: Plant response rating, Ryegrass, Italian [1, 20]
0: Plant response rating, Ryegrass, Italian [1, 18] | Plant response rating, Ryegrass, Italian [1, 19] | Plant response rating, Bromegrass, Downy [3, 21] | Plant response rating, Bromegrass, Downy [3, 18] | Plant response rating, Bromegrass, Downy [3, 19] | Plant response rating, Bromegrass, Downy [3, 20] | Plant response rating, Wheat [11, 14] | Plant response rating, Wheat [11, 18] | Plant response rating, Wheat [11, 19] | Plant response rating, Wheat [11, 20]
95: Plant response rating, Goosegrass [4, 16] | Plant response rating, Goosegrass [4, 17] | Plant response rating, Lambsquarters [6, 14] | Plant response rating, Crabgrass, Large [7, 16] | Plant response rating, Crabgrass, Large [7, 19] | Plant response rating, Ragweed [9, 17] | Plant response rating, Velvetleaf [10, 16] | Plant response rating, Cupgrass, Woolly [12, 17]
50: Plant response rating, Ryegrass, Italian [1, 15] | Plant response rating, Foxtail, Green [5, 14]
30: Plant response rating, Bromegrass, Downy [3, 15]
45: Plant response rating, Bromegrass, Downy [3, 17] | Plant response rating, Nutsedge, Yellow [13, 14]
70: Plant response rating, Ryegrass, Italian [1, 16] | Plant response rating, Foxtail, Green [5, 15] | Plant response rating, Foxtail, Green [5, 16] | Plant response rating, Foxtail, Green [5, 17] | Plant response rating, Foxtail, Green [5, 19] | Plant response rating, Nutsedge, Yellow [13, 16]
5: Plant response rating, Ryegrass, Italian [1, 14] | Plant response rating, Surinam Grass [2, 18] | Plant response rating, Bromegrass, Downy [3, 14] | Plant response rating, Wheat [11, 15]
10: Plant response rating, Wheat [11, 16] | Plant response rating, Cupgrass, Woolly [12, 18]
85: Plant response rating, Surinam Grass [2, 20] | Plant response rating, Crabgrass, Large [7, 15] | Plant response rating, Velvetleaf [10, 14] | Plant response rating, Cupgrass, Woolly [12, 21] | Plant response rating, Nutsedge, Yellow [13, 20]
80: Plant response rating, Ryegrass, Italian [1, 17] | Plant response rating, Surinam Grass [2, 15] | Plant response rating, Goosegrass [4, 15] | Plant response rating, Crabgrass, Large [7, 14] | Plant response rating, Ragweed [9, 15]
90: Plant response rating, Surinam Grass [2, 16] | Plant response rating, Surinam Grass [2, 17] | Plant response rating, Foxtail, Green [5, 20] | Plant response rating, Pigweed [8, 18] | Plant response rating, Ragweed [9, 16] | Plant response rating, Ragweed [9, 19] | Plant response rating, Ragweed [9, 20] | Plant response rating, Velvetleaf [10, 15] | Plant response rating, Velvetleaf [10, 19] | Plant response rating, Cupgrass, Woolly [12, 16]
65: Plant response rating, Cupgrass, Woolly [12, 19] | Plant response rating, Cupgrass, Woolly [12, 20] | Plant response rating, Nutsedge, Yellow [13, 19]
